Test results: PMC11121381, “ABCG2 Mediates Resistance to the Dual EGFR and PI3K Inhibitor MTX-211 in Cancer Cells” (International Journal of Molecular Sciences, 2024)

Key:
ABCG2 = molecular target: T1, ABCG2 (Homo sapiens, UniProt Q9UNQ0); experiment: vanadate-sensitive ATPase stimulation (endpoint Pi release) in ABCG2 membrane vesicles; supported by LC-MS/MS cell accumulation with and without Ko143; type: biochemical; settings: read-out: % of basal ATPase activity (peak stimulation)
T1 construct: human ABCG2 in membrane vesicles of High-Five insect cells
T1 sequence (Q9UNQ0 1-655): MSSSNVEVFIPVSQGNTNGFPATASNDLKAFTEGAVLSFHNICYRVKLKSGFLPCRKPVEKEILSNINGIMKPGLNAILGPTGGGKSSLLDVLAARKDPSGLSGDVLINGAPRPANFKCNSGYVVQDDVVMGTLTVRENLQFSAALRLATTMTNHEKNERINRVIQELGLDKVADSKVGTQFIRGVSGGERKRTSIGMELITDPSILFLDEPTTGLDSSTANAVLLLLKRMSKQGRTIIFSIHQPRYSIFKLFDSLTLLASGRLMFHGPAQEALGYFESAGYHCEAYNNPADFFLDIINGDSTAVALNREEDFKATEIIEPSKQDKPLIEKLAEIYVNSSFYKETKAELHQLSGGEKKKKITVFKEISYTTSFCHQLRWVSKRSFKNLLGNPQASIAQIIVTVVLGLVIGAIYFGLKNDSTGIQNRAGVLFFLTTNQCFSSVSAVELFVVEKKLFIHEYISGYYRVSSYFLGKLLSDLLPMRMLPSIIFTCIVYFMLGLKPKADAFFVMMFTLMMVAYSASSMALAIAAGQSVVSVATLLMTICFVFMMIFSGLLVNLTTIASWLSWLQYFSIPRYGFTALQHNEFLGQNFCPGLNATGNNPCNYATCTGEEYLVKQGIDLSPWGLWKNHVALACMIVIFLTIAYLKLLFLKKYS

[1] = molecular target: T2, epidermal growth factor receptor (EGFR) (Homo sapiens, UniProt P00533); experiment: inhibition of EGF-induced EGFR phosphorylation (Tyr1068) in cells, immunoblot; type: cell-based
T2 construct: endogenous EGFR in S1 human colon cancer cells
T2 sequence (P00533 25-1210): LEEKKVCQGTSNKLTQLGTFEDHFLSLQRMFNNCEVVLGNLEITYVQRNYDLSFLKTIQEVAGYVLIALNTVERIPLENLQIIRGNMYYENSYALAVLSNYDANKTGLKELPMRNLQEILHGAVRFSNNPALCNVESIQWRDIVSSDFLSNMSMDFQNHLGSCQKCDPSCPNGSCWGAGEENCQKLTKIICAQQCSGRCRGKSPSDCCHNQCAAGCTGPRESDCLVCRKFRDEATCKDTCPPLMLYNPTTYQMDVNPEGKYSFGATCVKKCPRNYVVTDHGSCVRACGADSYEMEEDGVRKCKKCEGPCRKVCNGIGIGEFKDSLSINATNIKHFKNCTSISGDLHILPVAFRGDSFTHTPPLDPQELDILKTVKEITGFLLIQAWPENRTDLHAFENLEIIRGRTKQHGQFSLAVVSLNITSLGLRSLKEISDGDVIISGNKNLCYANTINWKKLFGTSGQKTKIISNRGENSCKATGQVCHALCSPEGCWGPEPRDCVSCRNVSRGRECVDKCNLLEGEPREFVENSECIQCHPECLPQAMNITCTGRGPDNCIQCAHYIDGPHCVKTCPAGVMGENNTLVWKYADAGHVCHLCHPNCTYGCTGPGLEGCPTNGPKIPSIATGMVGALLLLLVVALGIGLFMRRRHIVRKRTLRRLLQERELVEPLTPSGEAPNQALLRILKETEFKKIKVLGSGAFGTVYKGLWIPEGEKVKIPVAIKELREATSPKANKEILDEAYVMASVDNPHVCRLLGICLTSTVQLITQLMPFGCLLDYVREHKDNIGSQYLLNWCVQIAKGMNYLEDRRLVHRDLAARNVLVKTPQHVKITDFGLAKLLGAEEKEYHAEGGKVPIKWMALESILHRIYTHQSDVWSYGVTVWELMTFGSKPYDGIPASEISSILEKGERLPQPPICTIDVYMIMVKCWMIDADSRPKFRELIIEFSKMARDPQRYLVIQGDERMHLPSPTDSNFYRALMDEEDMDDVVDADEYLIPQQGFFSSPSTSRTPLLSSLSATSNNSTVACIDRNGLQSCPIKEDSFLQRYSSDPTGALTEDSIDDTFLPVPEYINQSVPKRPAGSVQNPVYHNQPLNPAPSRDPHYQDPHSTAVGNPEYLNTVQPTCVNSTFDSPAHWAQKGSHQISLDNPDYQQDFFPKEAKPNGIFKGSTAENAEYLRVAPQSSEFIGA

- Emax (ABCG2): 157%
- IC50 [1]: 6.64 ± 1.27 µM
SMILES: CS(=O)(=O)Nc1cc(-c2ccc3ncnc(Nc4ccc(F)c(Cl)c4)c3c2)cnc1Cl [MTX-211]
